# Results published in patent US11178873B2, “Cyclic N-carboxamide compounds useful as herbicides” (FMC CORPORATION, priority 2015, dated 2021).
# Assays:
# Type in all cases: in vivo
# [1] = system: pigweed (Amaranthus retroflexus); assay: Test A preemergence, pigweed; details: 0 to 100 scale, 0 no effect, 100 complete control
# Description: (§1) Seeds of plant species selected from barnyardgrass (Echinochloa crus-galli), crabgrass, large (large crabgrass, Digitaria sanguinalis), kochia (Kochia scoparia), ragweed (common ragweed, Ambrosia elatior), morningglory (Ipomoea spp.), velvetleaf (Abutilon theophrasti), ryegrass, Italian (Italian ryegrass, Lolium multiflorum), foxtail, giant (giant foxtail, Setaria faberii), wheat (Triticum aestivum), corn (Zea mays), and pigweed (Amaranthus retroflexus), were planted into a blend of loam soil and sand and treated preemergence with a directed soil spray using test chemicals formulated in a non-phytotoxic solvent mixture which included a surfactant. At the same time, plants selected from these crop and weed species and also blackgrass (Alopecurus myosuroides), and galium (catchweed bedstraw, Galium aparine), were planted in pots containing the same blend of loam soil and sand and treated with postemergence applications of test chemicals formulated in the same manner. Plants ranged in height from 2 to 10 cm and were in the one- to two-leaf stage for the postemergence treatment. Treated plants and untreated controls were maintained in a greenhouse for approximately 10 d, after which time all treated plants were compared to untreated controls and visually evaluated for injury. Plant response ratings, summarized in Table A, are based on a 0 to 100 scale where 0 is no effect and 100 is complete control. A dash (-) response means no test result.
# [2] = system: wheat (Triticum aestivum); assay: Test A postemergence, wheat; details: 0 to 100 scale, 0 no effect, 100 complete control
# Description: as §1
# [3] = system: ragweed (common ragweed, Ambrosia elatior); assay: Test A preemergence, ragweed; details: 0 to 100 scale, 0 no effect, 100 complete control
# Description: as §1
# [4] = system: foxtail, giant (giant foxtail, Setaria faberii); assay: Test A preemergence, foxtail, giant; details: 0 to 100 scale, 0 no effect, 100 complete control
# Description: as §1
# [5] = system: galium (catchweed bedstraw, Galium aparine); assay: Test A postemergence, galium; details: 0 to 100 scale, 0 no effect, 100 complete control
# Description: as §1
# [6] = system: sedge, umbrella (small-flower umbrella sedge, Cyperus difformis); assay: Test B flooded paddy test, sedge, umbrella; details: Flood, scale 0 to 100 (0 no effect, 100 complete control), 13 to 15 d
# Method: (§2) Plant species in the flooded paddy test selected from rice (Oryza sativa), sedge, umbrella (small-flower umbrella sedge, Cyperus difformis), ducksalad (Heteranthera limosa), and barnyardgrass (Echinochloa crus-galli) were grown to the 2-leaf stage for testing. At time of treatment, test pots were flooded to 3 cm above the soil surface, treated by application of test compounds directly to the paddy water, and then maintained at that water depth for the duration of the test. Treated plants and controls were maintained in a greenhouse for 13 to 15 d, after which time all species were compared to controls and visually evaluated. Plant response ratings, summarized in Table B, are based on a scale of 0 to 100 where 0 is no effect and 100 is complete control. A dash (-) response means no test result.
# [7] = system: ragweed (common ragweed, Ambrosia elatior); assay: Test A postemergence, ragweed; details: 0 to 100 scale, 0 no effect, 100 complete control
# Description: as §1
# [8] = system: barnyardgrass (Echinochloa crus-galli); assay: Test A postemergence, barnyardgrass; details: 0 to 100 scale, 0 no effect, 100 complete control
# Description: as §1
# [9] = system: ducksalad (Heteranthera limosa); assay: Test B flooded paddy test, ducksalad; details: Flood, scale 0 to 100 (0 no effect, 100 complete control), 13 to 15 d
# Method: as §2
# [10] = system: barnyardgrass (Echinochloa crus-galli); assay: Test B flooded paddy test, barnyardgrass; details: Flood, scale 0 to 100 (0 no effect, 100 complete control), 13 to 15 d
# Method: as §2
# [11] = system: ryegrass, Italian (Italian ryegrass, Lolium multiflorum); assay: Test A preemergence, ryegrass, Italian; details: 0 to 100 scale, 0 no effect, 100 complete control
# Description: as §1
# [12] = system: foxtail, giant (giant foxtail, Setaria faberii); assay: Test A postemergence, foxtail, giant; details: 0 to 100 scale, 0 no effect, 100 complete control
# Description: as §1
# corn (Zea mays) = assay: Test A postemergence, corn; details: 0 to 100 scale, 0 no effect, 100 complete control
# Description: as §1
# [13] = system: barnyardgrass (Echinochloa crus-galli); assay: Test A preemergence, barnyardgrass; details: 0 to 100 scale, 0 no effect, 100 complete control
# Description: as §1
# [14] = system: pigweed (Amaranthus retroflexus); assay: Test A postemergence, pigweed; details: 0 to 100 scale, 0 no effect, 100 complete control
# Description: as §1
# kochia (Kochia scoparia) [15] = assay: Test A preemergence, kochia; details: 0 to 100 scale, 0 no effect, 100 complete control
# Description: as §1
# [16] = system: blackgrass (Alopecurus myosuroides); assay: Test A postemergence, blackgrass; details: 0 to 100 scale, 0 no effect, 100 complete control
# Description: as §1
# rice (Oryza sativa) = assay: Test B flooded paddy test, rice; details: Flood, scale 0 to 100 (0 no effect, 100 complete control), 13 to 15 d
# Method: as §2
# kochia (Kochia scoparia) [17] = assay: Test A postemergence, kochia; details: 0 to 100 scale, 0 no effect, 100 complete control
# Description: as §1
# [18] = system: ryegrass, Italian (Italian ryegrass, Lolium multiflorum); assay: Test A postemergence, ryegrass, Italian; details: 0 to 100 scale, 0 no effect, 100 complete control
# Description: as §1
SMILES,"Plant response rating, Pigweed ([1]; 125 g ai/ha)","Plant response rating, Pigweed ([1]; 500 g ai/ha)","Plant response rating, Wheat ([2]; 125 g ai/ha)","Plant response rating, Wheat ([2]; 500 g ai/ha)","Plant response rating, Ragweed ([3]; 125 g ai/ha)","Plant response rating, Ragweed ([3]; 500 g ai/ha)","Plant response rating, Foxtail, Giant ([4]; 125 g ai/ha)","Plant response rating, Foxtail, Giant ([4]; 500 g ai/ha)","Plant response rating, Galium ([5]; 125 g ai/ha)","Plant response rating, Ragweed ([7]; 125 g ai/ha)","Plant response rating, Barnyardgrass ([8]; 125 g ai/ha)","Plant response rating, Ryegrass, Italian ([11]; 125 g ai/ha)","Plant response rating, Foxtail, Giant ([12]; 125 g ai/ha)","Plant response rating, Corn (corn (Zea mays); 125 g ai/ha)","Plant response rating, Barnyardgrass ([13]; 125 g ai/ha)","Plant response rating, Pigweed ([14]; 125 g ai/ha)","Plant response rating, Kochia (kochia (Kochia scoparia) [15]; 125 g ai/ha)","Plant response rating, Blackgrass ([16]; 125 g ai/ha)","Plant response rating, Kochia (kochia (Kochia scoparia) [17]; 125 g ai/ha)","Plant response rating, Ryegrass, Italian ([18]; 125 g ai/ha)",also measured
"O=C1NCC(c2ccccc2)N1C(=O)Nc1cccc(F)c1F (stereo not drawn) [Compound 12, N-(2,3-difluorophenyl)-2-oxo-5-phenyl-1-imidazolidinecarboxamide]",0,0,0,0,0,0,60,90,0,0,60,0,80,0,20,0,0,0,0,0,"Plant response rating, Galium ([5]; 500 g ai/ha): 0; Plant response rating, Sedge, Umbrella ([6]; 1000 g ai/ha): 0; Plant response rating, Ragweed ([7]; 500 g ai/ha): 0; Plant response rating, Barnyardgrass ([8]; 500 g ai/ha): 90; Plant response rating, Ducksalad ([9]; 1000 g ai/ha): 90; Plant response rating, Barnyardgrass ([10]; 1000 g ai/ha): 0; Plant response rating, Ryegrass, Italian ([11]; 500 g ai/ha): 0; Plant response rating, Foxtail, Giant ([12]; 500 g ai/ha): 80; Plant response rating, Corn (corn (Zea mays); 500 g ai/ha): 0; Plant response rating, Barnyardgrass ([13]; 500 g ai/ha): 50; Plant response rating, Pigweed ([14]; 500 g ai/ha): 0; Plant response rating, Kochia (kochia (Kochia scoparia) [15]; 500 g ai/ha): 20; Plant response rating, Blackgrass ([16]; 500 g ai/ha): 0; Plant response rating, Rice (rice (Oryza sativa); 1000 g ai/ha): 0; Plant response rating, Kochia (kochia (Kochia scoparia) [17]; 500 g ai/ha): 0; Plant response rating, Ryegrass, Italian ([18]; 500 g ai/ha): 0"
O=C1CCC(c2ccc(Cl)cc2)N1C(=O)Nc1ccccc1C(F)(F)F (stereo not drawn) [Compound 23],0,–,0,–,0,–,0,–,0,0,0,0,0,0,0,0,0,0,0,0,"Plant response rating, Pigweed ([1]; 31 g ai/ha): 0; Plant response rating, Wheat ([2]; 31 g ai/ha): 0; Plant response rating, Ragweed ([3]; 31 g ai/ha): 0; Plant response rating, Foxtail, Giant ([4]; 31 g ai/ha): 0; Plant response rating, Galium ([5]; 31 g ai/ha): 0; Plant response rating, Sedge, Umbrella ([6]; 250 g ai/ha): 0; Plant response rating, Ragweed ([7]; 31 g ai/ha): 0; Plant response rating, Barnyardgrass ([8]; 31 g ai/ha): 0; Plant response rating, Ducksalad ([9]; 250 g ai/ha): 0; Plant response rating, Barnyardgrass ([10]; 250 g ai/ha): 0; Plant response rating, Ryegrass, Italian ([11]; 31 g ai/ha): 0; Plant response rating, Foxtail, Giant ([12]; 31 g ai/ha): 0; Plant response rating, Corn (corn (Zea mays); 31 g ai/ha): 0; Plant response rating, Barnyardgrass ([13]; 31 g ai/ha): 0; Plant response rating, Pigweed ([14]; 31 g ai/ha): 0; Plant response rating, Kochia (kochia (Kochia scoparia) [15]; 31 g ai/ha): 0; Plant response rating, Blackgrass ([16]; 31 g ai/ha): 0; Plant response rating, Rice (rice (Oryza sativa); 250 g ai/ha): 0; Plant response rating, Kochia (kochia (Kochia scoparia) [17]; 31 g ai/ha): 0; Plant response rating, Ryegrass, Italian ([18]; 31 g ai/ha): 0"
O=C1NCC(c2ccccc2)N1C(=O)Nc1ccccc1F (stereo not drawn) [Compound 5],0,0,0,0,0,0,0,0,0,0,0,0,0,0,0,0,0,0,0,0,"Plant response rating, Galium ([5]; 500 g ai/ha): 0; Plant response rating, Sedge, Umbrella ([6]; 1000 g ai/ha): 0; Plant response rating, Ragweed ([7]; 500 g ai/ha): 0; Plant response rating, Barnyardgrass ([8]; 500 g ai/ha): 0; Plant response rating, Ducksalad ([9]; 1000 g ai/ha): 90; Plant response rating, Barnyardgrass ([10]; 1000 g ai/ha): 0; Plant response rating, Ryegrass, Italian ([11]; 500 g ai/ha): 0; Plant response rating, Foxtail, Giant ([12]; 500 g ai/ha): 0; Plant response rating, Corn (corn (Zea mays); 500 g ai/ha): 0; Plant response rating, Barnyardgrass ([13]; 500 g ai/ha): 0; Plant response rating, Pigweed ([14]; 500 g ai/ha): 0; Plant response rating, Kochia (kochia (Kochia scoparia) [15]; 500 g ai/ha): 0; Plant response rating, Blackgrass ([16]; 500 g ai/ha): 0; Plant response rating, Rice (rice (Oryza sativa); 1000 g ai/ha): 0; Plant response rating, Kochia (kochia (Kochia scoparia) [17]; 500 g ai/ha): 0; Plant response rating, Ryegrass, Italian ([18]; 500 g ai/ha): 0"
O=C1NCC(c2ccc(F)c(F)c2)N1C(=O)Nc1ccccc1 (stereo not drawn) [Compound 7],0,0,0,0,0,0,0,0,0,0,0,0,0,0,0,0,0,0,0,0,"Plant response rating, Galium ([5]; 500 g ai/ha): 0; Plant response rating, Sedge, Umbrella ([6]; 1000 g ai/ha): 0; Plant response rating, Ragweed ([7]; 500 g ai/ha): 0; Plant response rating, Barnyardgrass ([8]; 500 g ai/ha): 0; Plant response rating, Ducksalad ([9]; 1000 g ai/ha): 0; Plant response rating, Barnyardgrass ([10]; 1000 g ai/ha): 0; Plant response rating, Ryegrass, Italian ([11]; 500 g ai/ha): 0; Plant response rating, Foxtail, Giant ([12]; 500 g ai/ha): 0; Plant response rating, Corn (corn (Zea mays); 500 g ai/ha): 0; Plant response rating, Barnyardgrass ([13]; 500 g ai/ha): 0; Plant response rating, Pigweed ([14]; 500 g ai/ha): 0; Plant response rating, Kochia (kochia (Kochia scoparia) [15]; 500 g ai/ha): 0; Plant response rating, Blackgrass ([16]; 500 g ai/ha): 0; Plant response rating, Rice (rice (Oryza sativa); 1000 g ai/ha): 0; Plant response rating, Kochia (kochia (Kochia scoparia) [17]; 500 g ai/ha): 0; Plant response rating, Ryegrass, Italian ([18]; 500 g ai/ha): 0"
O=C1NCC(c2ccc(F)c(F)c2)N1C(=O)Nc1ccccc1Cl (stereo not drawn) [Compound 9],0,0,0,0,0,0,0,0,0,0,0,0,0,0,0,0,0,0,0,0,"Plant response rating, Galium ([5]; 500 g ai/ha): 0; Plant response rating, Sedge, Umbrella ([6]; 500 g ai/ha): 0; Plant response rating, Ragweed ([7]; 500 g ai/ha): 0; Plant response rating, Barnyardgrass ([8]; 500 g ai/ha): 0; Plant response rating, Ducksalad ([9]; 500 g ai/ha): 0; Plant response rating, Barnyardgrass ([10]; 500 g ai/ha): 0; Plant response rating, Ryegrass, Italian ([11]; 500 g ai/ha): 0; Plant response rating, Foxtail, Giant ([12]; 500 g ai/ha): 0; Plant response rating, Corn (corn (Zea mays); 500 g ai/ha): 0; Plant response rating, Barnyardgrass ([13]; 500 g ai/ha): 0; Plant response rating, Pigweed ([14]; 500 g ai/ha): 0; Plant response rating, Kochia (kochia (Kochia scoparia) [15]; 500 g ai/ha): 0; Plant response rating, Blackgrass ([16]; 500 g ai/ha): 0; Plant response rating, Rice (rice (Oryza sativa); 500 g ai/ha): 0; Plant response rating, Kochia (kochia (Kochia scoparia) [17]; 500 g ai/ha): 0; Plant response rating, Ryegrass, Italian ([18]; 500 g ai/ha): 0"
